We go through two compounds from article PMC5724689, “Increased Conformational Flexibility of a Macrocycle–Receptor Complex Contributes to Reduced Dissociation Rates” (Chemistry (Weinheim an Der Bergstrasse, Germany), 2017).

For experiment [1], the target named is T1, 14-3-3ζ (14‐3‐3 isoform ζ) (Homo sapiens, UniProt P63104).
T1 construct: 14-3-3ζ (aa 1-245) with remaining His-Tag; made in house
T1 sequence (P63104 1-245): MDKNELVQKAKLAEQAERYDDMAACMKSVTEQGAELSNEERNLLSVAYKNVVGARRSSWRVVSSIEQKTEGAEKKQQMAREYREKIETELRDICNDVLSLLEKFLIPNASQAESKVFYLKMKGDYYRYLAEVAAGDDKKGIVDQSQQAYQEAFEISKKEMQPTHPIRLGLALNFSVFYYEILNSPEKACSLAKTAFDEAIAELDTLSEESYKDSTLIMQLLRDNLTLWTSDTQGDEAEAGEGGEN
As to the kind of experiment: biochemical. It counts as binding. Particulars: ITC, T = 303.15 K, pH 7.4; mean value of 3 runs.

Experiment [2] has as its target T1, 14-3-3ζ (14‐3‐3 isoform ζ). Briefly: biochemical. It counts as binding. The note with it: for koff: 19F NMR line shape analysis, slow exchange, 50 mM HEPES, 100 mM NaCl, 2 mM MgCl2, 1% DMSO, 10% D2O, pH 7.4, room temperature, error from fitting procedure (Equation S1), read-out: dissociation rate koff (NMR); for association rate kon = koff × Kd^-1 (Figure 2b) / kon: calculated from koff (19F NMR) and ITC-derived Kd; for kon: read-out: association rate kon = koff × Kd^-1.

`CC(C)C[C@H](NC(=O)[C@H](CC(=O)O)NC(=O)[C@H](CC(C)C)NC(=O)[C@]1(C)CCCCCCCC[C@@](C)(NC(=O)CNC(=O)[C@H](CCC(N)=O)NC(=O)CNC(=O)C(F)(F)F)C(=O)N[C@@H](CC(C)C)C(=O)N[C@@H](CC(=O)O)C(=O)N1)C(=O)N[C@@H](C)C(=O)N[C@@H](CO)C(N)=O` [MC18] displayed a Kd in experiment [1] of 362 nM. In addition, in experiment [2], the koff is 1.58 s⁻¹, the “association rate kon = koff × Kd^-1 (Figure 2b)” value was 4.38 ±0.47 s^-1M^-1 10^6 and the kon is 4.38e+06 M⁻¹ s⁻¹.
On the same counts, the results for `CC(C)C[C@H](NC(=O)[C@H](CC(=O)O)NC(=O)[C@H](CC(C)C)NC(=O)[C@]1(C)CCCCCCCCCCCC[C@](C)(NC(=O)CNC(=O)[C@H](CCC(N)=O)NC(=O)CNC(=O)C(F)(F)F)C(=O)N[C@@H](CC(C)C)C(=O)N[C@@H](CC(=O)O)C(=O)N1)C(=O)N[C@@H](C)C(=O)N[C@@H](CO)C(N)=O` [MC22] are 111 nM, 0.45 s⁻¹, 4.12 ±0.39 s^-1M^-1 10^6 and 4.12e+06 M⁻¹ s⁻¹.
